From EP1285971B1, “Methods for the phenotypic and genotypic assessment of the drug sensitivity of HIV integrase variants” (Tibotec Pharmaceuticals Ltd., priority 2001, dated 2003)
Like-named read-outs stand apart in the source and are kept apart here.

How the values were obtained:
[1] = system: WT III B; test: microbe, parasite or virus in culture; type: cell-based, HIV-1; conditions: AVE 5, WT III B, primer set 4
Procedure: (§1) The integrase encoding sequence was amplified from either wildtype HIV-1 (IIIB) or NL4.3 virus, or HXB2D site-directed mutant viruses containing mutations in integrase (such as T66I, S153Y, M154I, or combinations thereof) (Hazuda et al., Science 2000, 287, 646-650), or patient samples. Starting from RNA, extracted from virus supernatant or plasma using the QIAamp® viral RNA extraction kit (Qiagen), cDNA was synthesized by reverse transcription (Expand TM reverse transcriptase, 30 min at 42°C) with the primer 3'EGINT10 (SEQ ID NO 11), followed by a nested PCR. The outer PCR was performed with the primers 5'EGINT1 (SEQ ID NO 1) and 3'EGINT10 (SEQ ID NO 11) (ΔR-IN-vif construct) or 5'EGINT3 (SEQ ID NO 4) and 3'EGINT10 (SEQ ID NO 11) (ΔIN construct) (Expand™ High Fidelity PCR system), and 5 µl of the outer product was used for an inner PCR with primers 5'EGINT2 (SEQ ID NO 3) and 3'EGINT11 (SEQ ID NO 12) (ΔR-IN-vif construct) or 5'EGINT4 (SEQ ID NO 5) and 3'EGINT6 (SEQ ID NO 7) (ΔIN construct). In a second protocol the outer primers were identical as described above, the inner primers are 5'EGINT5 (SEQ ID NO 6) and 3'EGINT6 (SEQ ID NO 7). The amplicons can be used for genotyping and phenotyping. Cycling conditions for both PCRs are denaturation for 3 min at 95°C, followed by 30 cycles of 1 min 90°C, 30 sec 55°C, and 2 min 72°C. A final extension was performed at 72°C for 10 min. For recombination, PCR products are purified using the QiaQuick® 96 PCR BioRobot kit (Qiagen), according to the manufacturer's protocol. If the protocol starts from DNA containing the HIV material such as proviral DNA, the reverse transcriptase step is not needed. The nested approach is also not needed when starting from proviral DNA. The obtained amplicons were sequenced using the primers: In_seq1F (SEQ ID NO 17), In_seq2F (SEQ ID NO 18), In_seq3F (SEQ ID NO 19), IN_seq1R (SEQ ID NO 20), IN_seq2R (SEQ ID NO 21), and IN_seq3R (SEQ ID NO 22).
(§2) A ΔR-IN-vif or ΔIN deletion construct was generated by site-directed mutagenesis on the template pSV40HXB2D with the primers MUT-IN1 (SEQ ID NO 13) and MUT-IN2 (ΔR-IN-vif construct) (SEQ ID NO 14) or MUT-IN3 (SEQ ID NO 15) and MUT-IN4 (SEQ ID NO 16) (ΔIN construct) (protocol Site-directed mutagenesis kit, Stratagene). After DpnI digestion for removal of the methylated template DNA, the construct was digested with SmaI and ligated to circulize the plasmid. The plasmid was transformed into competent cells such as Top10 cells, and colonies were screened for the presence of the deletion construct. The IN-deletion construct was checked by sequence analysis with primers 5'EGINT1 (SEQ ID NO 1) or […] and 3'EGINT10 (SEQ ID NO 11) or 3'EGINT11 (SEQ ID NO 12). For use in recombination experiments, large-scale plasmid DNA preparations were linearized by SmaI digestion and recombined with PCR amplified integrase genes from wild type, mutant, or patient viruses. The plasmid containing the integrase deletion (ΔIN) has been deposited pSV40HXB2D-ΔIN. The sequence of said plasmid is 14377 nucleotides long. The ΔR-IN-vif deletion construct is 13975 nucleotides long. The pSV40HXB2D-ΔIN was deposited at the Belgian Coordinated Collections of Micro-Organisms located at the Universiteit Gent - Laboratorium voor Moleculaire Biologie on August 5, 2002 and the accession number is LMBP 4574.
(§3) Recombinant virus was produced by co-transfection by electroporation of the SmaI-linearized IN-deletion construct and the integrase amplicon into MT4 cells or MT4 cells equipped with an LTR driven reporter gene construct. Production of recombinant virus was evaluated by scoring the cytopathogenic effect (CPE) that is induced by HIV-infection of MT4 cells or by the LTR-driven reporter signal induced by HIV infection in MT4 reporter cells.

[2] = system: NL 4-3; test: microbe, parasite or virus in culture; type: cell-based, HIV-1; conditions: for fold change: fold change in EC50; for EC50: read-out: EC 50
Procedure: as §1, §2, §3

[3] = system: patient_146514; test: microbe, parasite or virus in culture; type: cell-based, HIV; conditions: AVE 2, patient_146514, primer set 3
Procedure: as §1, §2, §3

[4] = system: pHXB2D control; test: Antiviral experiment with control clone, transfected directly without recombination; type: cell-based, HIV; conditions: AVE 6, pHXB2D control, no recombination
Procedure: Recombinant virus was produced by co-transfection by electroporation of the SmaI-linearized IN-deletion construct and the integrase amplicon into MT4 cells or MT4 cells equipped with an LTR driven reporter gene construct. Production of recombinant virus was evaluated by scoring the cytopathogenic effect (CPE) that is induced by HIV-infection of MT4 cells or by the LTR-driven reporter signal induced by HIV infection in MT4 reporter cells. Green fluorescent protein was used as the reporter signal. Viruses are harvested and titrated at maximum CPE. For recombination the deletion construct pSV40HXB2D-ΔIN was used. Recombination experiments were performed with amplicon from wildtype HIV IIIB and NL4.3, and patient sample 146514 generated by both primer sets. For each recombination 2 µg amplicon was co-transfected with 10 µg SmaI-digested pSV40HXB2D-ΔIN by electroporation into MT4-LTR-EGFP cells. Virus stocks were titrated and tested in an antiviral experiment on a reference panel including nucleoside reverse transcriptase inhibitors (NRTI), non- nucleoside reverse transcriptase inhibitors (NNRTI), protein inhibitor (PR), entry and integrase (IN) inhibitors (Table 2). Recombination was checked by nucleic acid sequence analysis using protocols known to the person skilled in the art. Sequencing primers which can be used are In_seq1F (SEQ ID NO 17), In_seq2F (SEQ ID NO 18), In_seq3F (SEQ ID NO 19), IN_seq1R (SEQ ID NO 20), IN_seq2R (SEQ ID NO 21), and IN_seq3R (SEQ ID NO 22). The recombinant virus was evaluated in an anti-viral assay with a panel of reference compounds including nucleoside RT inhibitors (NRTI) Zidovudine (AZT) Lamivudine (3TC), Didanosine (DDI), non-nucleoside RT inhibitors (NNRTI) Nevirapine (NVP), 4-[[6-amino-5-bromo-2-[(4-cyanophenyl)amino]-4-pyrimidinyl]oxy]-3,5-dimethyl-benzonitrile also referred to as compound 1, 4-[[6-amino-5-bromo-2-[(4-cyanophenyl)amino]-4-pyrimidinyl]oxy]-3,5-dimethyl-Benzonitrile, also referred to as compound 2 protease inhibitors (PR) Saquinavir (SQV), Amprenavir (APV), Indinavir (IDV), [[…]-3-[[(4-aminophenyl)sulfonyl](2-methylpropyl)amino]-2-hydroxy-1-(phenylmethyl)-propyl]-, (3R,3aS,6aR)-hexahydrofuro[2,3-b]furan-3-yl ester carbamic acid also referred to as compound 3, entry-inhibitors (Entry)(AMD3100, DS5000, ATA), and integrase inhibitor (IN) 2-(1-methylethyloxy)-α,γ dioxo-5-(phenylmethyl)-benzenebutanoic acid also referred to as compound 4. […] AVE means antiviral experiment. Type means the type of inhibitor investigated. The fold change is the fold change in EC50. WT III B means that a portion of the wild type IIIB strain has been amplified and used in the antiviral experiment, including transfection and generation of recombinant virus. NL 4-3 means the integrase gene of this laboratory strain has been amplified and subsequently used for the antiviral experiment. […] No recombination has been effected using this HIV clone. pHXB2D has been used directly for transfection and antiviral experiment. Primer set 3 consist of outer primers 5'EGINT3 (SEQ ID NO 4) and 3'EGINT10 (SEQ ID NO 11), and inner primers 5'EGINT4 (SEQ ID NO 5) and 3'EGINT6 (SEQ ID NO 7). Primer set 4 consist of outer primers 5'EGINT3 (SEQ ID NO 4) and 3'EGINT10 (SEQ ID NO 11), and inner primers 5'EGINT5 […] and 3'EGINT6 (SEQ ID NO 7). Other suitable integrase inhibitors include L-731,988, diketo-acids and S-1360.

CC(C)CN(C[C@@H](O)[C@H](Cc1ccccc1)NC(=O)O[C@H]1CO[C@H]2OCC[C@H]21)S(=O)(=O)c1ccc(N)cc1 [Compound 3, [(11S,2R)-3-[[(4-aminophenyl)sulfonyl](2-methylpropyl)amino]-2-hydroxy-1-(phenylmethyl)-propyl]-, (3R,3aS,6aR)-hexahydrofuro[2,3-b]furan-3-yl ester carbamic acid] was tested, and the fold change ([1]; fold change in EC50) was 0,9, the EC50 ([1]; read-out: EC 50) was 6.3 nM and the fold change ([2]; AVE 1, NL 4-3, primer set 3) was 0,5. For the same molecule, the EC50 ([2]; AVE 1, NL 4-3, primer set 3) was 3.7 nM, the fold change ([2]; AVE 4, NL4-3, primer set 4) was 1,5 and the EC50 ([2]; AVE 4, NL4-3, primer set 4) was 10.9 nM. For the same molecule, the fold change ([3]; fold change in EC50) was 2,2, the EC50 ([3]; read-out: EC 50) was 15.6 nM and the EC50 [4] was 7.1 nM. The fold change ([4]; fold change in EC50) was 1,0.
